These results are taken from BindingDB's records for patent US20250282736 (ST. JUDE CHILDREN''S RESEARCH HOSPITAL, 2025).

Each structure is given as a SMILES string.

This series has as its target T1, PXR (Nuclear receptor subfamily 1 group I member 2) (Homo sapiens, UniProt O75469).
T1 sequence (O75469 whole entry): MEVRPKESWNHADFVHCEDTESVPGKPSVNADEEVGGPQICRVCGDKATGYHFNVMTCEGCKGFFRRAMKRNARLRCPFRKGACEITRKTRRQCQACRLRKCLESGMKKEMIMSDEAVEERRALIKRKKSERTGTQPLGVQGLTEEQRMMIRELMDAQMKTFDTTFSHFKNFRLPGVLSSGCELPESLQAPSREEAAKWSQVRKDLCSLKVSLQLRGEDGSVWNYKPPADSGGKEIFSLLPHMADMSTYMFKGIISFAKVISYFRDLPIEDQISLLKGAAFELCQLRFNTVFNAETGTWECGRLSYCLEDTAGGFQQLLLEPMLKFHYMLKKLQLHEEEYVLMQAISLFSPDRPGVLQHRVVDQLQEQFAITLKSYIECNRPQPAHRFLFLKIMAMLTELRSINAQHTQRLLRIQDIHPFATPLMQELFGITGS
Nature of the series: In Vitro Assay. From the text:
PXR can be determined in an in vitro assay system. Such in vitro assay systems include assay such as the assays as described herein.

`COc1ccc(Cl)cc1-n1nnc(C(=O)Nc2cc(C(C)(C)C)ccc2OCC(=O)O)c1C` [US20250282736, Compound B25]: half-maximal inhibition (IC50) was put at 360 nM.

The compound `CCCC(CC)Oc1ccc(C(C)(C)C)cc1NC(=O)c1nnn(-c2cc(OC)ccc2OC)c1C` (configuration not stated) [US20250282736, Compound J1] came in with an IC50 of 3.8 nM.

By IC50 is commonly meant the midpoint of a concentration-inhibition curve.
